Reference: publication PMC8209157, “Identification of a dual orange/far-red and blue light photoreceptor from an oceanic green picoplankton” (Nature Communications, 2021)

Assays:
[1] = target: T1, PpPHY (PHY region of PpDUC1) (Pycnococcus provasolii, UniProt A0A830HT85); experiment: UV-Vis photoconversion spectra, acid-urea denaturation and in-gel fluorescence of purified holoprotein; format: binding; settings: covalent; GAF Cys; chromophore co-produced in E. coli (pKT271); HEPES pH 7.5, room temperature
T1 construct: gene PPROV_000692100; source genome assembly GCA_015473125.1
T1 sequence (A0A830HT85 1-662): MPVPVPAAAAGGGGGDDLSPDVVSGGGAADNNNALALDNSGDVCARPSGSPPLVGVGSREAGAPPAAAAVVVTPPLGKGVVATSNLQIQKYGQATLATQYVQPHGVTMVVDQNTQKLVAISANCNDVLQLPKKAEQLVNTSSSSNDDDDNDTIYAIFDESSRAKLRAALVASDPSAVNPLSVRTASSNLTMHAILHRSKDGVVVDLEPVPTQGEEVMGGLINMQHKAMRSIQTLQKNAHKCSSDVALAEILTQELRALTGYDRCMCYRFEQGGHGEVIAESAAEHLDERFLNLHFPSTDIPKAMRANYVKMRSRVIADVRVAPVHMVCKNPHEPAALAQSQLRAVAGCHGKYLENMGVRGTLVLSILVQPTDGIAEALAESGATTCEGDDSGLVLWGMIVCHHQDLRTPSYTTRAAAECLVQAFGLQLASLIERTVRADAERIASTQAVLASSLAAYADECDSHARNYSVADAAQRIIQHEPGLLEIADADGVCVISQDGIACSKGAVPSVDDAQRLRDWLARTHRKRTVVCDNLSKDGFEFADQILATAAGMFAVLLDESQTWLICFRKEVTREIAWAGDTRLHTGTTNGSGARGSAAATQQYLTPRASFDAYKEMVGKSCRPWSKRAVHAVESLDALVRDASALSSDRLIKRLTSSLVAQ

[2] = target: T1, PpPHY (PHY region of PpDUC1); experiment: UV-Vis photoconversion spectra of purified holoprotein; format: binding; settings: chromophore co-produced in E. coli (pKT272); HEPES pH 7.5, room temperature

Structure (SMILES)	UV-Vis photoconversion spectra, acid-urea denaturation and in-gel fluorescence o [1]	UV-Vis photoconversion spectra of purified holoprotein [2]
CC=C1C(=Cc2[nH]c(C=C3N=C(C=C4NC(=O)C(CC)=C4C)C(C)=C3CCC(=O)O)c(CCC(=O)O)c2C)NC(=O)C1C (centres unmarked) [PCB, phycocyanobilin]	The purified PpPHY covalently bound PCB	–
C=CC1=C(C)C(=CC2=NC(=Cc3[nH]c(C=C4NC(=O)C(C)C4=CC)c(C)c3CCC(=O)O)C(CCC(=O)O)=C2C)NC1=O (centres unmarked) [PΦB, phytochromobilin]	–	PΦB but not BV could be efficiently incorporated into the apo-PpPHY
